Several values for one entry are separate records, joined by “and”; a condition that tells them apart may be missing. Equal entries are not always repeated.
What was measured:
[1] = system: person with evidence of decreased ovarian reserve; conditions: human, in vivo
[2] = system: women with diminished ovarian function; assay: Case control study of clinical pregnancy with DHEA supplementation (Example 7); type: in vivo, human
Procedure: A case control study of 190 women over 30 years old with diminished ovarian function were studied between 1999 and December 2005. The study group included 89 patients with a mean age of about 41.6 who used supplementation of about 75 mg daily of oral, micronized DHEA for up to four months prior to entry into IVF. […] The primary outcome was clinical pregnancy after the patient's initial visit.
(§1) Ovarian stimulation was identical for study and control groups and consisted of microdose agonist flare, followed by maximal dosage gonadotropin stimulation, using about 300-450 IU of FSH and about 150 IU of HMG. Study patients received DHEA continuously until a positive pregnancy test was obtained or until the patient dropped out of treatment.
In an additional study, a retrospective analysis of a 190 women with diminished ovarian function above 30 years old, who were treated between 1999 and December 2005 was completed to assess the impact of DHEA supplementation on the time interval to the establishment of pregnancy.
A prequalification for each patient's diagnosis of diminished ovarian function was either a sub-diagnosis of premature ovarian aging (POA) or a sub-diagnosis of diminished ovarian reserve (DOR). POA was, in turn, defined as baseline follicle stimulating hormone (b-FSH), on Day 2/3 of a cycle as <12 mIU/ml, but exceeding the 95% CI of the mean value for the patient's age group.
Specifically, this meant b-FSH≧7.4 mIU/ml at age 30-34 years and ≧8.6 mIU/ml at age≧35 years. DOR, in turn, was defined as b-FSH≧12 mIU/ml and/or a baseline estradiol level≧75 pg/ml. 49 patients were confirmed with POA and 52 patients were confirmed with DOR, creating a control group of 101 women. Because of potential impending loss of ovarian function in the control group women, the control group women were treated with IVF as soon as possible.
During the time studied, the study group consisted of 89 patients, with diminished ovarian function (POA 24, DOR 65). Each person in the study group was placed on DHEA supplementation. The DHEA supplementation included administering about 25 mg of (pharmaceutical grade) micronized DHEA, three times daily, for up to about four months (mean 3.8±0.3 months). […] This delay of IVF treatment allowed the possibility of spontaneously conceived pregnancies.
as §1, with “comprised” for “consisted of”, “treatment. DHEA and DHEAS levels were monitored monthly, and patients were interviewed at each visit about adverse reactions to DHEA supplementation.” for “treatment.”
In order to assess the impact of DHEA supplementation on time interval to the establishment of pregnancy, this study was designed as a life-table analysis, measuring not only total pregnancy rates but also the time between initial presentation and end of last treatment intervention.
Each recorded clinical pregnancy, defined as positive fetal cardiac activity on ultrasound examination after 6 weeks, was recorded as a positive outcome. Patients who continued treatments beyond the study period or stopped treatments were considered right censored data at the end of the study period, or at treatment cessation, respectively.
A Cox regression analysis was used to evaluate time-to-event. The model that we used stratified for level of ovarian reserve (POA and DOR) and adjusted for age, day 3 FSH, fertility treatments (none, Intrauterine Insemination and controlled ovarian hyperstimulation (IUI/COH), or IVF) and race/ethnicity. A trend in pregnancy rates over months of DHEA exposure with an interaction term for time and DHEA months of exposure was tested. SPSS for Windows, Standard version 10.0.7 (SPSS Co. Chicago, Ill.) was utilized for data analysis. Continuous outcomes are presented as mean±1 standard error. […]

[3] = system: patients with prior clomiphene citrate failures; assay: Toronto insemination cycles after DHEA (reported study); type: in vivo, human; conditions: DHEA pregnancies, insemination cycles with clomiphene citrate/letrozole and FSH
Procedure: In cooperation with Robert F Casper's group at Toronto's Mount Sinai Hospital, they recently reported on 47 patients with prior clomiphene citrate failures who were supplemented with 75 mg daily of DHEA for at least 60 days prior to inseminations, with stimulation by either clomiphene citrate or letrozole in combination with FSH. Controls were 46 women, matched by age and baseline FSH without DHEA supplementation.
The possibility of synergistic gonadotropin and DHEA effects is supported by reanalysis of the Toronto groups' previously noted insemination cycles, stimulated with a clomiphene citrate/letrozole and FSH protocols. […] Final conclusions await, however, further investigations.

[4] = Level of unconjugated DHEA under routine treatment protocol; type: in vivo, human; conditions: 25 mg micronized pharmaceutical grade DHEA TID
Procedure: Routine treatment protocol involves administering about 25 mg of micronized, pharmaceutical grade DHEA, TID, to a human to uniformly raise levels of unconjugated DHEA above 350 ng/dl and, therefore, raise baseline testosterone. In six pregnancies spontaneously conceived, the distribution between female and male offspring was equal, at three and three, respectively. In contrast, in the remaining 15 offspring, which were products of pregnancies achieved through IVF, the distribution was 12 males and 3 females (p=0.035). Amongst women undergoing IVF and PGD, 53 embryos were analyzed from 17 IVF cycles, all having undergone ICSI.
The treatment protocol for long-term supplementation with DHEA that may improve oocyte and embryo quantity, quality, pregnancy rates and time to conception in women with diminished ovarian reserve, involves 25 mg of micronized, pharmaceutical grade DHEA, TID will usually uniformly raise levels of unconjugated DHEA above about 350 ng/dl, and, therefore, raise baseline testosterone. Estradiol baseline levels may also be raised.

[5] = DHEA group, intrauterine insemination, no IVF
[6] = DHEA group, no other treatment than DHEA

Compound: C[C@]12CC[C@H](O)CC1=CC[C@@H]1[C@@H]2CC[C@]2(C)C(=O)CC[C@@H]12 [DHEA, Dehydroepiandrosterone]
- (log) peak E2 increase [1]: 0.47±0.06
- aneuploid embryos amongst 10 embryos (PGD) [1]: nine
- average embryo cell count [1]: 6.83±1.37 and 7.2±1.15
- cryopreservable embryo yield increase [1]: 1.4±0.14 embryos per cycle
- cryopreservable embryos [1]: 11
- embryo morphology [1]: 3.6±0.5 and 3.7±0.5
- embryos in a cycle [1]: 9 and 10 and 11
- embryos of high enough quality to undergo cryopreservation [1]: 49
- embryos produced [1]: 16
- oocyte yield increase [1]: 2.5±0.34 oocytes per cycle
- oocytes in a cycle [1]: 13 and 16 and 19
- oocytes retrieved [1]: 17
- total viable embryos cryopreserved [1]: 50
- oocytes produced ([1]; po): 19
- proportional hazards ratio for clinical pregnancy relative to controls (HR) ([2]; Cox regression, 95% CI 1.2 to 11.8): 3.8
- Implantation (FH/Embryos trans) ([2]; DHEA group): (11.4%)
- Implantation (FH/Embryos trans) (n/N) ([2]; DHEA group): 13/101
- Miscarriage (Per clinical Pregnancy) (n/N) ([2]; DHEA group): 5 of 25 and 5/25
- Normal Day 3 embryos ([2]; DHEA group): 2.4±0.03 and 2.4 ± 0.3
- Oocytes ([2]; DHEA group): 3.9 ± 0.4
- Positive hCG (>25 mIU/ml) ([2]; DHEA group): (30%)
- Positive hCG (>25 mIU/ml) (n/N) ([2]; DHEA group): 26/88
- Transferred embryos ([2]; DHEA group): 2.1±0.2
- pregnancies established spontaneously (no IVF treatment) out of the 25 ([2]; DHEA group): 12
- Clinical Pregnancy (n/N) ([2]; DHEA group, all 89 patients): 25 of 89 and 25/89
- Clinical Pregnancy, IUI/COH [2, 5]: (66.7%)
- Clinical Pregnancy, IUI/COH (n/N) [2, 5]: 6 of 9 and 6/9
- Clinical Pregnancy, No Treatment [2, 6]: (35.3%)
- Clinical Pregnancy, No Treatment (n/N) [2, 6]: 6 of 16 and 6/16
- Clinical Pregnancy, IVF (n/N) ([2]; DHEA group, patients reaching IVF): 13/64
- Cancellation (IVF) (n/N) ([2]; DHEA group, about 25 mg three times daily, 3.8 ± 0.3 months): 9/63
- decrease of the miscarriage rate ([2]; DHEA versus control): about 44%
- increase of the percentage of clinical pregnancies ([2]; DHEA versus control): about 157%
- mean DHEA and DHEAS levels at cycle day 2 ([2]; approximately two months after initiation of treatment): in the low normal ranges
- proportional hazards estimation of pregnancy (HR), extended Cox models ([2]; correction for time dependent variables, 95% CI 1.6 to 14.2): 4.8
- miscarriage rate (calculated on reanalysis) [3]: 28.5%
- levels of unconjugated DHEA [4]: above 350 ng/dl

Reference: patent US9375436B2, “Androgen treatment in females” (priority 2004, dated 2016)
